Experimental data taken from US4870002A, “Method of prevention of oxidative injury to cells” (priority 1985, dated 1989).
“Also recorded” adds a separate entry of the source.

Tested on: pig RBCs
Assay: Thermal fragility / hemolysis of RBCs (410 nm absorbance of supernatant)
Type: cell-based
Protocol: Blood was collected from Landrace-Duroc swine from a closed herd. Pigs from this herd had previously expressed episodes of porcine stress syndrome (malignant hyperthermia) following halothane anesthesia. The blood was collected into acidic citrated dextrose solution in standard blood bags. The blood was diluted 1:10 in phosphate (0.1M) buffered saline (PBS), pH 7.4, in 10 ml aliquots, centrifuged in a clinical centrifuge, and the erythrocytes were resuspended in fresh PBS. The cells were stored at 4° C. until used in the various assays. The post-collection chronological age of the RBCs used for a particular assay is noted in the results for each assay. The cells were counted in an automated cell counter (Coulter ZBI, Coulter Electronics, Inc., Hialeah, Fla. 33010).
Red blood cells were heated in 1 or 1.5 ml aliquots of PBS pH 7.4 with or without additional reagents in cellulose nitrate or polypropylene centrifuge tubes. Two concentrations of cells were used as indicated in the results. Heating was accomplished by three methods: microwave radiation, hot air, or water bath heating. The microwave device was a circularly polarized waveguide powered by a 1-kw S-band (microwave) amplifier (Model 10704,MCL, Inc., La Grange, Ill.). The heating of the sample at a specific absorption rate (SAR) of 91±4 W/kg (continuous wave (CW), 2450MHz) was offset by an air-cooling system that maintained a constant temperature. This system has been previously described in greater detail in Kiel, J. L. and D. N. Erwin, "Microwave and thermal interactions with oxidative hemolysis", 16 Physiol. Chem. Phys. Med. NMR, 317-323 (1984), which reference is hereby incorporated in its entirety by this specific reference thereto. […] The temperature was held within ±0.2° C. by this system. In the absence of microwave radiation, the temperature was held constant by hot air alone. The microwave/hot air system was brought to 37° C. for 15 min. prior to raising the temperature to 43° C. by microwaves or hot hot air. The water bath heating held the temperature within ±0.5° C. Heating times were 10, 15, or 30 min. The temperatures examined were 37°, 43°, 45°, or 48°.
Hemoglobin released into the supernatants of the heated cells were determined by the method described in the above-incorporated reference of Kiel and Erwin (1984). In brief, the supernatants were collected following centrifugation in a clinical centrifuge, diluted 1:2 in PBS, pH 7.4, and the optical absorbances at 410 nm were determined in a dual beam spectrophotometer. Pyruvate, lactate, inosine, hydrogen peroxide, mimosine, and/or 3-amino-L-tyrosine were added to the samples as indicated in Tables 1-3 and 9-12. All reagents were diluted in PBS and the final volumes of the samples were constant.

## Nc1cc(C[C@H](N)C(=O)O)ccc1O [3-aminotyrosine, 3-amino-L-tyrosine]
74 μM, 48° C. 30 min
  Percent difference from controls (corrected), 4° C.: -0.8%
  Percent difference from controls (corrected), 48° C.: -38.3%
74 μM, 48° C. 30 min, RBCs 20 days post collection, 1.4×10^9 per ml
  410 nm absorbance, Actual: 0.491 ± 0.032
74 μM, 48° C. 30 min, corrected for RBC dilution
  410 nm absorbance, Corrected: 0.368
74 μM, 48° C. for 30 min
  effect on thermal hemolysis, in words: suppressed the thermal hemolysis to the level of the 4 °C control; also recorded: powerful inhibitor
1.49 mM, 45° C.
  effect on thermal hemolysis, in words: did not significantly inhibit
3-amino-L-tyrosine and H2O2 at 37° C., 4° C. control 0.243±0.004
  hemolysis, optical density of supernatants (1:2 dilution) at 410 nm: 0.261±0.007
Preincubation with 3-amino-L-tyrosine alone (1.49 mM, 4° C., 72 hours)
  hemolytic value: 0.452±0.02
Pyruvate and 3-amino-L-tyrosine, 37° C.
  spontaneous hemolysis reading: 0.326±0.03
